Experimental data taken from US20260055126A1, “SMALL MOLECULE COMPOUNDS WITH PHOSPHORYLATED ARYL STRUCTURES AND USE THEREOF” (HANGZHOU PHECDAMED CO., LTD., priority 2022, published 2026).

Legend:
[1] = Mouse plasma pharmacokinetic test; type: in vivo, CD-1 mice
Description: In this example, different compounds are used to perform a mouse pharmacokinetic experiment, and the specific steps are as follows: Animal information: CD-1 mice, male, about 20 g, purchase from Beijing Weitonglihua Experimental Animal Technology Co., Ltd.
Animal dietary status: Animals are not fasted before administration and allowed to drink water freely.
Compound preparation method: for intragastric administration (IG)(G1 group), preparing with 0.5% CMC-Na, and for intravenous injection(IV) (G2 group), preparing 5% DMSO+30% PEG400+65% water. […]
Sampling time points of G1 group: 8 points in total, namely 10 min, 30 min, 1 h, 2 h, 4 h, 6 h, 8 h and 24 h after administration, among them, animals G1M01-G1M03 are sampled at 3 time points, namely 10 min, 1 h and 6 h; animals G1M04-G1M06 are sampled at 3 time points, namely 30 min, 2 h and 8 h; animals G1M07-G1M09 are sampled at 2 time points, namely 4 h and 24 h.
Sampling time points of G2 group: 9 points in total, namely 5 min, 10 min, 30 min, 1 h, 2 h, 4 h, 6 h, 8 h, 24 h after administration. It is recommended that animals G2M01-G2M03 are sampled at 3 time points, namely 5 min, 1 h, and 6 h; animals G2M04-G2M06 are sampled at 3 time points, namely 10 min, 2 h, and 8 h; animals G2M07-G2M09 are sampled at 3 time points, namely 30 min, 4 h, and 24 h.
Sample collection: On the day of the experiment, collecting approximately 0.1 mL of whole blood samples at each preset time point and placing in EDTA-K2 anticoagulant tubes.
Sample processing: Within 30 minutes after whole blood sample collection, centrifuging at 4° C., 12,000 rpm for 5 minutes to separate plasma, collecting the upper plasma sample into a sample tube, and freezing the plasma sample in a −10˜−30° C. refrigerator within 30 minutes and transferring to a −60˜−90° C. refrigerator within 24 hours.
Sample testing and data processing: LC/MS/MS testing, WinNonlin for fitting and pharmacokinetic parameter calculation.

[2] = tested on: recombinant TEAD1 protein (194-411, Uniprot ID: P28347); assay: Thermal shift assay (protein melting point curve), TEAD1; type: binding; set-up: key to the marks not given beside the values; conditions: 10 μM TEAD protein, 50 μM test compound
[3] = In vitro liver microsome stability, human; type: in vitro ADME; conditions: human liver microsomes
Protocol: (§1) Testosterone is selected as the positive reference compound. The specific method is as follows:
(§2) Preparing 0.1MK3 PO4 (pH 7.4) buffer and 3×NADPH stock solution (6 mM, 5 mg/mL), and preheating in a 37° C. water bath; preparing spiking solution of tested compound and control compound: adding 5 μL compound stock solution (10 mM) to 95 μL acetonitrile; preparing 1.5 μM spiking solution in microsomes (0.75 mg/mL): add 1.5 μL spiking solution and 18.75 μL liver microsome solution (20 mg/mL) to 479.75 μL K3PO4 buffer; taking 30 μL spiking solution in microsomes and adding it to the multiwell plate, and incubating at 37° C. for 5 min; adding 15 μL of NADPH stock solution to each well, starting to react, and timing; adding 150 μL of acetonitrile solution containing IS at 0 min, 5 min, 15 min, 30 min, 45 min and 60 min respectively to terminate the reaction; after 10 min of oscillation, centrifuging the reaction at 6000 rpm for 15 min; taking 80 μL of supernatant from each well for LC/MS detection and calculating Ti/2.
(§3) Liver microsomes of mice, rats, dogs, and human used in the experiment are purchased from Xenotech.

[4] = In vitro liver microsome stability, rat; type: in vitro ADME; conditions: rat liver microsomes
Protocol: as §1, §2, §3

[5] = In vitro liver microsome stability, dog; type: in vitro ADME; conditions: dog liver microsomes
Protocol: as §1, §2, §3

[6] = molecular target: recombinant TEAD3 protein (218-435, Uniprot ID: Q99594) (Homo sapiens (Human), UniProt Q99594); assay: Thermal shift assay (protein melting point curve), TEAD3; type: binding; conditions: 10 μM TEAD protein, 50 μM test compound
[7] = molecular target: recombinant TEAD1 protein central pocket (Homo sapiens (Human), UniProt P28347); assay: Competitive thiol binding assay (CPM assay), TEAD1; conditions: 150 nM recombinant TEAD protein, 150 nM CPM
Protocol: Diluting the tested compound in gradient to 5 uL with buffer (25 mM HEPES, 150 mM NaCl, pH6.5), then adding 5 μL of the newly prepared 0.45 uM recombinant TEAD protein solution, and incubating at room temperature for 10 minutes. […] After shaking the plate at room temperature for 1 hour, measuring the fluorescence intensity (Ex/Em: 380/470 nm).

[8] = In vitro liver microsome stability, mouse; type: in vitro ADME; conditions: mouse liver microsomes
Protocol: as §1, §2, §3

recombinant TEAD3 protein (218-435, Uniprot ID: Q99594), sequence (Q99594 218-435): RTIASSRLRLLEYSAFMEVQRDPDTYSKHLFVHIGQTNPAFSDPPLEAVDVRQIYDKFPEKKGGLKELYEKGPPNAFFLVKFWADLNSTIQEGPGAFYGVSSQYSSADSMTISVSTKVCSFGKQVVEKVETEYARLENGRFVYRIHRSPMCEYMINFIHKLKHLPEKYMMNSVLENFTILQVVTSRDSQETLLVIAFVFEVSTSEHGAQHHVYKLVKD
recombinant TEAD1 protein central pocket, sequence (P28347 whole entry): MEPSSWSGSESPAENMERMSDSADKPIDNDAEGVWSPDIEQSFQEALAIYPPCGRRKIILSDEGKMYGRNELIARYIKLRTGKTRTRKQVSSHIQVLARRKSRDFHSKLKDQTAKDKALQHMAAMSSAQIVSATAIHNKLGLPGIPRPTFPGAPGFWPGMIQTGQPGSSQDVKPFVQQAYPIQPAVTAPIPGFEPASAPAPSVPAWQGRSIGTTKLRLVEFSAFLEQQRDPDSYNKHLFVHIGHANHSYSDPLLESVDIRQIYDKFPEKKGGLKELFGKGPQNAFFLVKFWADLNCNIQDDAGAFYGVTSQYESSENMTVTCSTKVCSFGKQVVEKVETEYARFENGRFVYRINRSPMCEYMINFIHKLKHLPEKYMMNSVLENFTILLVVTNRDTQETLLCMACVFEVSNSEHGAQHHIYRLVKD

CP(C)(=O)c1ccc(NCc2ccc(C(F)(F)F)cc2)c(-c2nccc(OC3COC3)n2)c1 [Compound 17]
F % ([1]; CD-1 mice, IG 10 mg/kg vs IV 1 mg/kg): 51.9%
AUC0-t ([1]; CD-1 mice, single IG 10 mg/kg): 4662 ng·h/mL
AUC0-∞ ([1]; CD-1 mice, single IG 10 mg/kg): 5688 ng·h/mL
Cmax ([1]; CD-1 mice, single IG 10 mg/kg): 1477 ng/mL
MRT0-t ([1]; CD-1 mice, single IG 10 mg/kg): 2.84 h
MRT0-∞ ([1]; CD-1 mice, single IG 10 mg/kg): 4.66 h
Tmax ([1]; CD-1 mice, single IG 10 mg/kg): 0.5 h
t1/2 ([1]; CD-1 mice, single IG 10 mg/kg): 3.46 h
AUC0-t ([1]; CD-1 mice, single IV 1 mg/kg): 899 ng·h/mL
AUC0-∞ ([1]; CD-1 mice, single IV 1 mg/kg): 924 ng·h/mL
CL ([1]; CD-1 mice, single IV 1 mg/kg): 18.03 mL/min/kg
Cmax ([1]; CD-1 mice, single IV 1 mg/kg): 598 ng/mL
MRT0-t ([1]; CD-1 mice, single IV 1 mg/kg): 1.55 h
MRT0-∞ ([1]; CD-1 mice, single IV 1 mg/kg): 1.80 h
Vss ([1]; CD-1 mice, single IV 1 mg/kg): 1.947 L/kg
t1/2 ([1]; CD-1 mice, single IV 1 mg/kg): 1.94 h
pharmacokinetic properties in mice ([1]; mice): good pharmacokinetic properties
Δ T m (TEAD1) [2]: ++++
human half-life [3]: 1.78 h
rat half-life [4]: 0.8 h
dog half-life [5]: 2.35 h
Δ T m (TEAD3) [6]: +
IC50 [7]: 290 nM
mouse half-life [8]: 0.565 h
